Some test systems named below: MALME-3M melanoma; UACC-257 melanoma; IGROV1 ovarian; NCI/ADR-RES ovarian; SNB-19 CNS; U251 CNS; MDA-MB-435; A498 renal; OVCAR-4 ovarian; SF-539 CNS; A549 NSCLC; RPMI-8226 leukemia; SK-MEL-5 melanoma; LOX IMVI melanoma; MDA-N; NCI-H460 lung; HS 578T breast; TK-10 renal; MOLT-4 leukemia; HL-60(TB) leukemia.
Holding throughout (assay): NCI tumour cell line growth inhibition, 48 h

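Step 1: Grow cells in 96-well plates. Step 2: Expose to compound for 48 hours at 5 concentrations. Step 3: Interpolate endpoints linearly; if unreached, use highest concentration. TGI: total growth inhibition.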 Some results are limits rather than exact numbers.

With `O=C(O)CC12CC3CC(CC(O)(C3)C1)C2`, the TGI is 77.1 µM with MALME-3M melanoma; more than 100 µM in the experiment on UACC-257 melanoma; more than 100 µM in the experiment with IGROV1 ovarian; more than 100 µM in the experiment with NCI/ADR-RES ovarian; more than 100 µM in the experiment on SNB-19 CNS; more than 100 µM with U251 CNS. For the same molecule, the TGI in the experiment on MDA-MB-435, with A498 renal, in the experiment with OVCAR-4 ovarian, in the experiment with SF-539 CNS, with A549 NSCLC and with RPMI-8226 leukemia was more than 100 µM throughout. For the same molecule, the TGI with SK-MEL-5 melanoma is more than 100 µM; in the experiment on LOX IMVI melanoma, more than 100 µM; in the experiment on MDA-N, more than 100 µM; in the experiment with NCI-H460 lung it was more than 100 µM; in the experiment on HS 578T breast, 59.9 µM; with TK-10 renal, more than 100 µM.
For `O=C(/C=C(\Nc1ccccc1O)c1ccc(Br)cc1)C(Cl)(Cl)Cl`, the TGI in the experiment on MALME-3M melanoma came out at 29.2 µM; in the experiment on UACC-257 melanoma, 20.1 µM; in the experiment with MOLT-4 leukemia it was 33.7 µM; in the experiment with IGROV1 ovarian, 23.7 µM; with NCI/ADR-RES ovarian, 25.1 µM; with SNB-19 CNS, 20.3 µM. For the same molecule, the TGI came to 15.4 µM in the experiment with U251 CNS; 21.8 µM with MDA-MB-435; 19.2 µM in the experiment on OVCAR-4 ovarian; 27.1 µM in the experiment on SF-539 CNS; 12.4 µM in the experiment on A549 NSCLC; 7.29 µM in the experiment with RPMI-8226 leukemia. For the same molecule, the TGI with SK-MEL-5 melanoma turned out to be 27.7 µM; in the experiment on LOX IMVI melanoma it was 32.9 µM; with MDA-N, 17.3 µM; with HL-60(TB) leukemia, 9.39 µM; in the experiment on NCI-H460 lung, 12.9 µM; in the experiment on HS 578T breast, 18.1 µM. The same molecule registered a TGI in the experiment on TK-10 renal of 19.1 µM.
Take `O=c1[nH]c(=O)n(C2C(CO)OC(CO)C2O)cc1F` (stereo not given): the TGI with MALME-3M melanoma, with UACC-257 melanoma, in the experiment with MOLT-4 leukemia, in the experiment on IGROV1 ovarian, in the experiment on NCI/ADR-RES ovarian and in the experiment on SNB-19 CNS was more than 100 µM throughout. Further, the TGI in the experiment with U251 CNS, in the experiment with MDA-MB-435, in the experiment on A498 renal, in the experiment on OVCAR-4 ovarian, in the experiment on SF-539 CNS and in the experiment on A549 NSCLC was more than 100 µM each time. The TGI in the experiment on RPMI-8226 leukemia, in the experiment on SK-MEL-5 melanoma, in the experiment with LOX IMVI melanoma, in the experiment with MDA-N, in the experiment with NCI-H460 lung and in the experiment on HS 578T breast was more than 100 µM in each case. Also, the TGI in the experiment on TK-10 renal is more than 100 µM.
In the case of `N#Cc1c(-c2ccccc2)cc(-c2ccccc2)n(C2OCC(O)C(O)C2O)c1=S` (stereo not given), the TGI was 81 µM with MALME-3M melanoma; 75.4 µM in the experiment with UACC-257 melanoma; more than 100 µM in the experiment on MOLT-4 leukemia; 33.5 µM with IGROV1 ovarian; 86.5 µM with NCI/ADR-RES ovarian; 89.7 µM in the experiment on SNB-19 CNS. Besides, the TGI turned out to be 30.4 µM in the experiment on U251 CNS; 45.2 µM in the experiment with MDA-MB-435; 64.2 µM with A498 renal; 70.6 µM in the experiment with OVCAR-4 ovarian; 41.9 µM in the experiment with SF-539 CNS; 57.4 µM in the experiment on A549 NSCLC. The TGI was 34.7 µM in the experiment with RPMI-8226 leukemia; 27.9 µM with SK-MEL-5 melanoma; 31.9 µM in the experiment with LOX IMVI melanoma; 55 µM in the experiment on MDA-N; 70.6 µM in the experiment with NCI-H460 lung; more than 100 µM with HS 578T breast. In addition, the TGI in the experiment on TK-10 renal came to 58.2 µM.
In the case of `COc1cc(C(=O)O)c(-c2cc3c(cc2C=O)OCO3)c(OC)c1OC`, the TGI in the experiment with MALME-3M melanoma, with UACC-257 melanoma, in the experiment with MOLT-4 leukemia, with IGROV1 ovarian, in the experiment on NCI/ADR-RES ovarian and in the experiment on SNB-19 CNS was more than 10 µM each time. Besides, the TGI in the experiment on U251 CNS, with MDA-MB-435, in the experiment with OVCAR-4 ovarian, with SF-539 CNS, in the experiment with A549 NSCLC and with RPMI-8226 leukemia was more than 10 µM in each case. In addition, the TGI with SK-MEL-5 melanoma, in the experiment on LOX IMVI melanoma, with MDA-N, in the experiment with HL-60(TB) leukemia, in the experiment with HS 578T breast and in the experiment with TK-10 renal was more than 10 µM each time.
On to `C=C(CCC=C(C)C)C1CC=C(C)CC1` (stereo not given), for which the TGI was more than 100 µM with MALME-3M melanoma; more than 100 µM in the experiment on UACC-257 melanoma; 28.4 µM in the experiment with IGROV1 ovarian; more than 100 µM in the experiment on NCI/ADR-RES ovarian; more than 100 µM in the experiment with SNB-19 CNS; 34.8 µM in the experiment on U251 CNS. The TGI is 35.7 µM in the experiment on MDA-MB-435; more than 100 µM in the experiment with A498 renal; 68.2 µM with SF-539 CNS; 39 µM in the experiment with A549 NSCLC; 31 µM in the experiment on SK-MEL-5 melanoma; 21.9 µM with LOX IMVI melanoma. The TGI in the experiment on MDA-N is 37.9 µM; with NCI-H460 lung it was 40.1 µM; with HS 578T breast, 59 µM; with TK-10 renal it was more than 100 µM.
For `COc1ccc(NC(=O)C(=O)Cc2nc3ccc(C(=O)c4ccccc4)cc3[nH]c2=O)c([N+](=O)[O-])c1`, the TGI was more than 100 µM in the experiment on MALME-3M melanoma; more than 100 µM in the experiment on UACC-257 melanoma; 40.1 µM in the experiment with MOLT-4 leukemia; 60.7 µM in the experiment with IGROV1 ovarian; 33.2 µM in the experiment on NCI/ADR-RES ovarian; more than 100 µM in the experiment with SNB-19 CNS. Moreover, the TGI in the experiment with U251 CNS was more than 100 µM; in the experiment with MDA-MB-435 it was 66.1 µM; in the experiment on A498 renal, 54.8 µM; in the experiment with OVCAR-4 ovarian, more than 100 µM; in the experiment on SF-539 CNS it was more than 100 µM; in the experiment on A549 NSCLC, more than 100 µM. Moreover, the TGI with SK-MEL-5 melanoma is 68.8 µM; in the experiment with LOX IMVI melanoma it was more than 100 µM; in the experiment with MDA-N it was more than 100 µM; in the experiment on NCI-H460 lung, more than 100 µM; with HS 578T breast, more than 100 µM; in the experiment on TK-10 renal, more than 100 µM.
As to `Nc1ccc(-c2nc3ccc(F)cc3s2)cc1I`, the TGI with MALME-3M melanoma, in the experiment on UACC-257 melanoma, in the experiment with MOLT-4 leukemia, with IGROV1 ovarian, in the experiment on NCI/ADR-RES ovarian and with SNB-19 CNS was more than 100 µM throughout. Moreover, the TGI with U251 CNS, with MDA-MB-435, in the experiment with A498 renal, in the experiment with SF-539 CNS, in the experiment with A549 NSCLC and in the experiment with RPMI-8226 leukemia was more than 100 µM in each case. The TGI in the experiment on SK-MEL-5 melanoma, in the experiment on LOX IMVI melanoma, in the experiment with MDA-N, in the experiment on NCI-H460 lung and in the experiment on HS 578T breast was more than 100 µM throughout.
For the molecule `CCOC(=O)/C=C/C1(CCOC(C)=O)CCCCC1`, the TGI with UACC-257 melanoma, in the experiment with MOLT-4 leukemia, in the experiment with IGROV1 ovarian, in the experiment on NCI/ADR-RES ovarian, with SNB-19 CNS and with U251 CNS was more than 10 µM each time. Further, the TGI with MDA-MB-435, with OVCAR-4 ovarian, in the experiment on SF-539 CNS, in the experiment with A549 NSCLC, with RPMI-8226 leukemia and in the experiment on SK-MEL-5 melanoma was more than 10 µM in each case. For the same molecule, the TGI with LOX IMVI melanoma, with MDA-N, in the experiment on HL-60(TB) leukemia, in the experiment with NCI-H460 lung, with HS 578T breast and in the experiment on TK-10 renal was more than 10 µM throughout.
Turning to `CCCC(=O)OCOC(=O)N(C)N=Nc1ccc(C(=O)OCC)cc1`, the TGI is 43.3 µM in the experiment with MALME-3M melanoma; more than 100 µM in the experiment with UACC-257 melanoma; more than 100 µM in the experiment with MOLT-4 leukemia; more than 100 µM with IGROV1 ovarian; more than 100 µM in the experiment on NCI/ADR-RES ovarian; more than 100 µM in the experiment on SNB-19 CNS. The TGI in the experiment on U251 CNS was 84.1 µM; in the experiment on MDA-MB-435, more than 100 µM; in the experiment with A498 renal, more than 100 µM; with OVCAR-4 ovarian it was more than 100 µM; in the experiment with A549 NSCLC, more than 100 µM; with RPMI-8226 leukemia it was more than 100 µM. The TGI was more than 100 µM in the experiment with SK-MEL-5 melanoma; 37 µM with LOX IMVI melanoma; more than 100 µM in the experiment on MDA-N; 71.8 µM with NCI-H460 lung; 85.7 µM in the experiment with HS 578T breast; more than 100 µM with TK-10 renal.
As for `Nc1[nH]c(=O)[nH]c(=O)c1Cc1cccc(Cl)c1`, the TGI with MALME-3M melanoma, with UACC-257 melanoma, in the experiment on IGROV1 ovarian, in the experiment with NCI/ADR-RES ovarian, with SNB-19 CNS and in the experiment with U251 CNS was more than 100 µM each time. Also, the TGI in the experiment with MDA-MB-435, with A498 renal, in the experiment with OVCAR-4 ovarian, in the experiment on SF-539 CNS, in the experiment on A549 NSCLC and with RPMI-8226 leukemia was more than 100 µM in each case. In addition, the TGI in the experiment on LOX IMVI melanoma, in the experiment on MDA-N, in the experiment on NCI-H460 lung, in the experiment on HS 578T breast and in the experiment with TK-10 renal was more than 100 µM each time.
With `FC(F)(F)c1cccnc1Sc1nc2ccccc2s1`, the TGI in the experiment on MALME-3M melanoma, with UACC-257 melanoma, with MOLT-4 leukemia, in the experiment on IGROV1 ovarian, in the experiment with NCI/ADR-RES ovarian and in the experiment on SNB-19 CNS was more than 100 µM each time. Besides, the TGI in the experiment with U251 CNS, in the experiment on MDA-MB-435, in the experiment with A498 renal, in the experiment with OVCAR-4 ovarian, in the experiment with SF-539 CNS and in the experiment on A549 NSCLC was more than 100 µM in each case. In addition, the TGI in the experiment with RPMI-8226 leukemia, with SK-MEL-5 melanoma, in the experiment with MDA-N, in the experiment with NCI-H460 lung, with HS 578T breast and in the experiment on TK-10 renal was more than 100 µM in each case.

The values are drawn from PubChem BioAssay (NCI).
